Results: patent publication EP0589484A1, “1,2-Ethanediol derivative and salt thereof, process for producing the same, and cerebral function-improving agent comprising the same” (TOYAMA CHEMICAL CO., LTD., priority 1989, dated 1990)
Where a name gives a salt, the structure may show the parent alone. Read-outs that look alike come from different tables or passages of the source.

Columns and labels:
[1] = tested on: ddY female mouse; assay: Effect of test compound on hypoxia (antihypoxic activity); format: in vivo; conditions: po, read-out: Antihypoxic activity (%)
Procedure: A test compound dissolved in physiological saline (100 mg/kg) was orally administered to a ddY female mouse (5-6 weeks old, each group consisting of 10 mice). After 1 (or 30 minutes*) hour from the administration, each mouse was placed in a 300-ml glass chamber, and a gas mixture consisting of 4% of oxygen and 96% of nitrogen was passed through the chamber at a rate of 5 liters/min. A time from the start of gas passing to the death of each mouse was measured.
To a control mice group was orally administered only physiological saline.
The antihypoxic activity of the test compound was calculated from the following formula: [formula]

[2] = tested on: ddY male mice; assay: Acute toxicity; format: in vivo, mouse; conditions: 50 mg/kg intravenously, group of 3 ddY male mice
Source text: A test compound dissolved in physiological saline was intravenously administered to a group of 3 ddY male mice (5-6 weeks old) to examine the acute toxicity of the test compound.

[3] = target: T1, acetylcholinesterase (Mus musculus, UniProt P21836); assay: Inhibitory activity for acetylcholinesterase (method of Ellman et al.); format: biochemical; conditions: final concentration of the test compound 10 µg/ml; mouse cerebral homogenate; read-out: Inhibition (%)
T1 construct: a mouse cerebral homogenate (as an acetylcholinesterase source); from tissue; host or cells: mouse cerebrum (homogenate)
T1 sequence (P21836 32-614): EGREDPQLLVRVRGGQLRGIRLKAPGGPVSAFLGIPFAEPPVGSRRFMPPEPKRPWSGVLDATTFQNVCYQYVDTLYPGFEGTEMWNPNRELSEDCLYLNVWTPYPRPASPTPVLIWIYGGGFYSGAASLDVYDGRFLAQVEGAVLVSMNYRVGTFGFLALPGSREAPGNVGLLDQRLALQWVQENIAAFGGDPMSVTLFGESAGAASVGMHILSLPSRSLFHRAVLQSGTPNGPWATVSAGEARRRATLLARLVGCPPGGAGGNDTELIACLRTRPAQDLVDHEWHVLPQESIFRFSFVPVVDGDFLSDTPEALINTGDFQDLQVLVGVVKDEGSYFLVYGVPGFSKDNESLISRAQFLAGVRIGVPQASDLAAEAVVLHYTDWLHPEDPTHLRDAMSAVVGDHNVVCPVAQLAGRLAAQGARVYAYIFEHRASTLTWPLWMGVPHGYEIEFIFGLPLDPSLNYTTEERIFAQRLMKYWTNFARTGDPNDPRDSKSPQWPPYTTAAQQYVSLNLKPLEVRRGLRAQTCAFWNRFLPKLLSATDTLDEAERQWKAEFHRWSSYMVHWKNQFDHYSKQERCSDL
Procedure: A test was conducted in accordance with the method of Ellman et al. [Biochem. Pharmacol., vol. 7, pp. 88-95, 1961].
That is, acetylthiocholine (as a substrate) was added to a phosphate buffer solution containing 5,5'-dithiobis-(2-nitrobenzoic acid) (DTNB), a test compound and a mouse cerebral homogenate (as an acetylcholinesterase source). The resulting mixture was incubated, and the amount of the resulting 5-thio-2-nitrobenzoic acid was photometrically measured at 412 nm.
The inhibitory activity for acetylcholinesterase of the test compound was expressed by the inhibition (%) when the final concentration of the test compound was 10 µg/ml.

[4] = 100 mg/kg orally, placed in chamber (4% oxygen, 96% nitrogen) after 1 hour from the administration, survival time relative to control
[5] = 0.5 h, 100 mg/kg orally, placed in chamber (4% oxygen, 96% nitrogen) after 30 minutes from the administration (values marked *), survival time relative to control

How did the response vs control in vivo at 100 mg/kg ([1]; 1 h) turn out when `CN(C)CCOCC(O)c1cccc(F)c1.Cl` (stereo not drawn) [Compound No. 1, 2-[2-(N,N-dimethylamino)ethoxy]-1-(3-fluorophenyl)ethanol hydrochloride] was run?
The response vs control in vivo at 100 mg/kg was 155%.

And the Acute toxicity [2]?
Its Acute toxicity is “no death case”.

Which response vs control in vivo at 100 mg/kg ([1]; 1 h) does the source give for `CN(C)CCOCC(O)c1cccc(C(F)(F)F)c1.Cl` (stereo not drawn) [Compound No. 42, 2-[2-(N,N-dimethylamino)ethoxy]-1-(3-trifluoromethylphenyl)ethanol hydrochloride] here?
Its response vs control in vivo at 100 mg/kg is 194%.

And the Acute toxicity [2]?
The Acute toxicity was “no death case”.

What does the source list for `CN(C)CCOCC(O)c1ccc(OCc2ccccc2)cc1` (stereo not drawn) [Compound No. 48, 1-(4-benzyloxyphenyl)-2-[2-(N,N-dimethylamino)ethoxy]ethanol hydrochloride]?
response vs control in vivo at 100 mg/kg ([1]; 1 h): 160%; inhibition at 10 µg/mL [3]: 51%

`CN(C)CCOCC(O)c1ccccc1` (stereo not drawn) [compound 2] was tested. Which response vs control in vivo at 100 mg/kg [1, 4] did it give?
The response vs control in vivo at 100 mg/kg was 119%.

And the Acute toxicity [2]?
Its Acute toxicity is “no death case”.

What does the source list for `CN(C)CCOC[C@H](O)c1ccccc1` [compound 3]?
response vs control in vivo at 100 mg/kg [1, 5]: 245%; Acute toxicity [2]: no death case

For `O=C1CCCN1CCOCC(O)c1ccccc1` (stereo not drawn) [compound 9], which response vs control in vivo at 100 mg/kg [1, 4] is on record?
Its response vs control in vivo at 100 mg/kg is 113%.

And the Acute toxicity [2]?
The Acute toxicity was “no death case”.

Which results are given for `Cc1cccc(C(O)COCCN(C)C)c1.Cl` (stereo not drawn) [compound 15, 2-[2-(N,N-dimethylamino)ethoxy]-1-(3-methylphenyl)ethanol hydrochloride]?
response vs control in vivo at 100 mg/kg ([1]; 0.5 h): 194%; Acute toxicity [2]: no death case

`Cc1ccc(C(O)COCCN(C)C)cc1` (stereo not drawn) [compound 16] was tested. Which response vs control in vivo at 100 mg/kg [1, 4] did it give?
Its response vs control in vivo at 100 mg/kg is 116%.

And the Acute toxicity [2]?
Its Acute toxicity is “no death case”.

For `CN(C)CCOCC(O)c1ccc(Cl)cc1` (stereo not drawn) [compound 33], which response vs control in vivo at 100 mg/kg [1, 5] is on record?
Its response vs control in vivo at 100 mg/kg is 224%.

What about the Acute toxicity [2] of the same compound?
Its Acute toxicity is “no death case”.

Which results are given for `CSc1ccc(C(O)COCCN(C)C)cc1` (stereo not drawn) [compound 46]?
response vs control in vivo at 100 mg/kg [1, 5]: 150%; Acute toxicity [2]: no death case

For `OC(COCCC1CCN(Cc2ccccc2)CC1)c1ccccc1` (stereo not drawn) [compound 60], which inhibition at 10 µg/mL [3] is on record?
The inhibition at 10 µg/mL was 71%.

With `Cc1cc(C)cc(Oc2ccc(C(O)COCCN(C)C)cc2)c1` (stereo not drawn) [compound 72] as the compound, how does the inhibition at 10 µg/mL [3] read?
Its inhibition at 10 µg/mL is 92%.

For `CN(C)CCOCC(O)c1ccc(Oc2ccccc2)c(F)c1` (stereo not drawn) [compound 73], which inhibition at 10 µg/mL [3] is on record?
Its inhibition at 10 µg/mL is 89%.

For `OC(COCCC1CCN(Cc2ccccc2)CC1)c1ccc(Oc2ccccc2)cc1` (stereo not drawn) [compound 78], which inhibition at 10 µg/mL [3] is on record?
The inhibition at 10 µg/mL was 90%.

How did the inhibition at 10 µg/mL [3] turn out when `CCN(CC)CCOCC(O)c1cccc(C)c1` (stereo not drawn) [compound 90] was run?
The inhibition at 10 µg/mL was 52%.

With `CN(C)CCOC[C@H](O)c1ccc(OCc2ccccc2)cc1` [compound 103] as the compound, how does the inhibition at 10 µg/mL [3] read?
Its inhibition at 10 µg/mL is 36%.

`OC(COC1CCN(Cc2ccccc2)CC1)c1ccccc1` (stereo not drawn) [compound 113, 2-(1-benzylpiperidin-4-yloxy)-1-phenylethanol hydrochloride] was tested. Which inhibition at 10 µg/mL [3] did it give?
Its inhibition at 10 µg/mL is 45%.

What does the source list for `Cn1cnc(COCC(O)c2ccccc2)c1` (stereo not drawn) [compound 119]?
response vs control in vivo at 100 mg/kg [1, 5]: 175%; Acute toxicity [2]: no death case

How did the response vs control in vivo at 100 mg/kg [1, 5] turn out when `OC(COCc1cccnc1)c1ccccc1` (stereo not drawn) [compound 120] was run?
The response vs control in vivo at 100 mg/kg was 162%.

And the Acute toxicity [2]?
Its Acute toxicity is “no death case”.

Which results are given for `OC(COCc1cccnc1)c1cccc(Cl)c1` (stereo not drawn) [compound 126]?
response vs control in vivo at 100 mg/kg [1, 5]: 172%; Acute toxicity [2]: no death case

`OC(COCc1c[nH]cn1)c1ccccc1` (stereo not drawn) [compound 132] was tested. Which response vs control in vivo at 100 mg/kg [1, 5] did it give?
The response vs control in vivo at 100 mg/kg was 133%.

What about the Acute toxicity [2] of the same compound?
The Acute toxicity was “no death case”.

Which response vs control in vivo at 100 mg/kg [1, 4] does the source give for `OC(COCC1CNCCO1)c1ccccc1` (stereo not drawn) [compound 151, 1-phenyl-2-[(morpholin-2-yl)methoxy]ethanol] here?
The response vs control in vivo at 100 mg/kg was 182%.

And the Acute toxicity [2]?
The Acute toxicity was “no death case”.

Which inhibition at 10 µg/mL [3] does the source give for `OC(COCCN1CCc2ccccc2C1)c1ccccc1` (stereo not drawn) [compound 165] here?
Its inhibition at 10 µg/mL is 24%.

With `Cc1cccc(C(O)COCCC2CCNCC2)c1` (stereo not drawn) [compound 176] as the compound, how does the Acute toxicity [2] read?
The Acute toxicity was “no death case”.

`CC(=O)OC(COCCN1CCOCC1)c1cccc(C)c1` (stereo not drawn) [compound 178, 1-acetoxy-1-(3-methylphenyl)-2-[2-(morpholin-4-yl)ethoxy]ethane] was tested. Which Acute toxicity [2] did it give?
Its Acute toxicity is “no death case”.

`CN(C)CCOCC(O)c1ccc2c(c1)OCCO2` (stereo not drawn) [compound 194] was tested. Which Acute toxicity [2] did it give?
Its Acute toxicity is “no death case”.

What does the source list for `OC(COCCNC1CC1)c1ccccc1` (stereo not drawn) [compound 209]?
response vs control in vivo at 100 mg/kg [1, 5]: 148%; Acute toxicity [2]: no death case

Which results are given for `O[C@@H](COC[C@@H]1CNCCO1)c1ccccc1` [compound 219, (1R,2'S)-1-phenyl-2-[(morpholin-2-yl)methoxy]ethanol maleate]?
response vs control in vivo at 100 mg/kg [1, 5]: 222%; Acute toxicity [2]: no death case
